EP0596449A2, “Serotonin receptor antagonists for treating myocardial ischemia” (E.R. SQUIBB & SONS, INC., priority 1992, dated 1994)
Marks after values point to notes of the source that are not given here.

Columns and labels:
alpha, Adrenoceptors = assay: Methoxamine-induced contraction in rat aortic rings (alpha1 blocking potency); conditions: 45 minute incubation; Figure 5B
Experimental: In order to determine the alpha1 blocking potency of cinanserin, ketanserin and LY 53857, their effect on methoxamine induced aortic constriction was determined. Male Sprague-Dawley rats were sacrificed using C02. Aortic rings (3 mm in width) were cut, denuded of endothelium by gently rolling the rings on moistened filter paper, and mounted on stainless steel hooks in 20 mL muscle chambers containing oxygenated physiological salt solution (PSS) of the following composition (in mM): 118.4 NaCI, 4.7 KCI, 1.2 MgS04, 1.2 KH2P04, 1.9 CaC12, 25.0 NaHC03, 10.1 D-glucose, and 0.01 mM Na2EDTA maintained at 37 °C. The hooks were connected to Grass FT03C transducers for recording of isometric force development. The rings were stretched to 2 g preload during the equilibration period. During equilibration the rings were periodically stimulated with 24 mM KCI to determine contractility. The effectiveness of endothelial removal was confirmed by the absence of relaxation by 1 µM acetylcholine of a contraction in response to 0.01 µM phenylephrine.
Various concentrations of the test compounds were then added to individual baths and allowed a 45 minute incubation before cumulative concentration response curves for methoxamine (1 nM-30 /1.M) were obtained. Solvent controls were run in parallel. […]

[1] = tested on: globally ischemic rat hearts; assay: Global ischemia (25 min) and reperfusion (30 min) in isolated perfused rat hearts, 5HT2 antagonists
Experimental: To determine the effect of serotonin receptor agonists and antagonists, male Sprague-Dawley rats (450-550 g) were prepared as described below. The rats were anesthetized using 100 mg/kg sodium pentobarbital (i.p.). They were intubated and then treated with i.v. heparin (1000 U/kg). While being mechanically ventilated, their hearts were perfused in situ via retrograde cannulation of the aorta. The hearts were then excised and […] moved to a Langendorff apparatus where they were perfused with Krebs-henseleit bicarbonate buffer solution ((mM): 112 NaCI, 25 NaHC03, 5 KCI, 1.2 MgS04, 1 KH2P04, 1.25 CaC12, 2 pyruvate and 11.5 dextrose bubbled with 95% 02 - 5% C02) at a constant perfusion pressure (85 mm Hg). A water-filled latex balloon attached to a metal cannula was then inserted into the left ventricle and connected to a Statham pressure transducer for measurement of left ventricular pressure. The hearts were allowed to equilibrate for 15 min, at which time end diastolic pressure (EDP) was adjusted to 5 mm Hg and this balloon volume was maintained for the duration of the experiment. Pre-ischemia or pre-drug function, heart rate and coronary flow (extracorporeal electromagnetic flow probe) were then measured. Left ventricular developed pressure (LVDP) was calculated from the difference between left ventricular peak systolic pressure and EDP. Cardiac temperature was maintained throughout the experiment by submerging the hearts in 37 ° C buffer which was allowed to accumulate in a stoppered, heated chamber.
The model of global ischemia in isolated rat hearts was designed such that any protective effects observed are generally due to a direct cardioprotective effect and not to effects on cornonary or peripheral vascular tone. Also, because the hearts are perfused with an oxygenated buffer solution, platelets or the normal components of an inflammatory response are probably not important mediators of the ischemic/reperfusion injury observed in this model. […] Agents which exert their protective effects either through their effects on the peripheral or coronary vasculature such as nitrates or agents which act on blood or act on some component of the inflammatory response such as thromboxane A2 receptor antagonists are generally ineffective in this model.
The hearts were divided into the following groups: 1. Vehicle (0.1% DMSO) treatment beginning 10 minutes before the onset of ischemia (n = 8). 2. 0.3-10 µM ketanserin treatment beginning 10 minutes before the onset of ischemia (n = 4-5 per group). 3. 10 µM ketanserin given only during reperfusion (n = 4). 4. 0.1-10 µM cinanserin treatment beginning 10 minutes before global ischemia (n = 4-10). 5. 1-10 µM LY 53857 treatment beginning 10 minutes before the onset of ischemia (n = 4 per group). After 10 minutes of vehicle or drug pretreatment, the hearts were subjected to 25 minutes of total global ischemia which was initiated by shutting off the perfusate flow. Reperfusion was begun (without drug except in the case of group 3 above) and allowed to continue for 30 minutes. At this time, final measurements of EDP, LVDP and coronary flow were obtained. Cumulative LDH relase was measured in the reperfusate and was used as the index of cellular and membrane viability. In all hearts, the time to contracture during ischemia was measured and used as an index of cardioprotection during ischemia. Time to contracture is defined as the time (minutes) necessary for the first 5 mm Hg increase in EDP to occur during global ischemia. The data were expressed as the percent change in time to contracture from vehicle.

[2] = 0.3 µM, 30 Min Post-Reperfusion
[3] = 0.3 µM, Pre-Ischemia, Post-Drug
[4] = 3 µM (Reper), given only during reperfusion, 30 Min Post-Reperfusion
[5] = 3 µM (Reper), given only during reperfusion, Pre-Ischemia, Post-Drug
[6] = 3 µM (Reper), given only during reperfusion, Pre-Ischemia, Pre-Drug

SMILES: O=C(c1ccc(F)cc1)C1CCN(CCn2c(=O)[nH]c3ccccc3c2=O)CC1 [Ketanserin, ketanserin]
- concentration from which the shift of the methoxamine-tension curve was significant (alpha, Adrenoceptors): 0.3 µM
- Coronary Flow [1, 2]: 13±2^a mL/min/g
- HR [1, 2]: 266±18^a beats/min
- LVDP [1, 2]: 20±5^a mmHg
- Coronary Flow [1, 3]: 16 ± 2 mL/min/g
- HR [1, 3]: 275±6 beats/min
- LVDP [1, 3]: 141±10 mmHg
- Coronary Flow ([1]; 0.3 µM, Pre-Ischemia, Pre-Drug): 20 ± 2 mL/min/g
- HR ([1]; 0.3 µM, Pre-Ischemia, Pre-Drug): 291±2 beats/min
- LVDP ([1]; 0.3 µM, Pre-Ischemia, Pre-Drug): 146±5 mmHg
- Coronary Flow ([1]; 1 µM, 30 Min Post-Reperfusion): 10±1^a mL/min/g
- HR ([1]; 1 µM, 30 Min Post-Reperfusion): 243±35^a beats/min
- LVDP ([1]; 1 µM, 30 Min Post-Reperfusion): 29±5^a mmHg
- Coronary Flow ([1]; 1 µM, Pre-Ischemia, Post-Drug): 15 ± 1 mL/min/g
- HR ([1]; 1 µM, Pre-Ischemia, Post-Drug): 272±11 beats/min
- LVDP ([1]; 1 µM, Pre-Ischemia, Post-Drug): 128±4 mmHg
- Coronary Flow ([1]; 1 µM, Pre-Ischemia, Pre-Drug): 19 ± 1 mL/min/g
- HR ([1]; 1 µM, Pre-Ischemia, Pre-Drug): 311±16 beats/min
- LVDP ([1]; 1 µM, Pre-Ischemia, Pre-Drug): 130±6 mmHg
- Coronary Flow [1, 4]: 14±1^a mL/min/g
- HR [1, 4]: 196±14^a,b beats/min
- LVDP [1, 4]: 33±6^a mmHg
- Coronary Flow [1, 5]: 17 ± 2 mL/min/g
- HR [1, 5]: 285±11 beats/min
- LVDP [1, 5]: 130±5 mmHg
- Coronary Flow [1, 6]: 19 ± 1 mL/min/g
- HR [1, 6]: 292±15 beats/min
- LVDP [1, 6]: 134±4 mmHg
- Coronary Flow ([1]; 3 µM, 30 Min Post-Reperfusion): 13±1^a mL/min/g
- HR ([1]; 3 µM, 30 Min Post-Reperfusion): 246±22^a beats/min
- LVDP ([1]; 3 µM, 30 Min Post-Reperfusion): 53±7^a,b mmHg
- Coronary Flow ([1]; 3 µM, Pre-Ischemia, Post-Drug): 15 ± 1 mL/min/g
- HR ([1]; 3 µM, Pre-Ischemia, Post-Drug): 244±16^a beats/min
- LVDP ([1]; 3 µM, Pre-Ischemia, Post-Drug): 127±9 mmHg
- Coronary Flow ([1]; 3 µM, Pre-Ischemia, Pre-Drug): 19 ± 1 mL/min/g
- HR ([1]; 3 µM, Pre-Ischemia, Pre-Drug): 310±13 beats/min
- LVDP ([1]; 3 µM, Pre-Ischemia, Pre-Drug): 128±8 mmHg
- Coronary Flow ([1]; 10 µM, 30 Min Post-Reperfusion): 13±2^a mL/min/g
- HR ([1]; 10 µM, 30 Min Post-Reperfusion): 220±22^a beats/min
- LVDP ([1]; 10 µM, 30 Min Post-Reperfusion): 66±4^a,b mmHg
- Coronary Flow ([1]; 10 µM, Pre-Ischemia, Post-Drug): 14 ± 2 mL/min/g
- HR ([1]; 10 µM, Pre-Ischemia, Post-Drug): 196±19^a,b beats/min
- LVDP ([1]; 10 µM, Pre-Ischemia, Post-Drug): 128±5 mmHg
- Coronary Flow ([1]; 10 µM, Pre-Ischemia, Pre-Drug): 19 ± 1 mL/min/g
- HR ([1]; 10 µM, Pre-Ischemia, Pre-Drug): 290±6 beats/min
- LVDP ([1]; 10 µM, Pre-Ischemia, Pre-Drug): 135±5 mmHg
- EC25 ([1]; Rattus norvegicus, drug given 10 minutes before global ischemia, read-out: EC25 (concentration which increased the time to contracture 25% above vehicle group values)): 5.5 µM
- cumulative LDH release during reperfusion ([1]; given only during reperfusion (Reper)): did not cause a reduction in LDH release
- protective effect for any variable measured ([1]; given only during reperfusion at 3 µM): no protective effect
- reperfusion LDH release ([1]; only at the 10 µM concentration, Figure 2B): significantly reduced LDH relase
